Values of other authors as cited in patent US8097283B2, “Methods and compositions for imaging” (Mount Sinai School of Medicine, priority 2004, dated 2012).
Read-outs that look alike come from different tables or passages of the source. Each block holds one molecule with its values, some of them ahead of it.

Assays:
[1] = 0.5 T, 37° C.
[2] = not given; remark: listed apart in the source
[3] = mouse

r1 [1]: 3.8 mM⁻¹ s⁻¹
Viscosity (concentration 0.5M): 2.9 cP
Osmolality ([2]; concentration 0.5M): 1.96 osmol/kg
Molecule: O=C([O-])CN(CCN(CC(=O)[O-])CC(=O)O)CCN(CC(=O)[O-])CC(=O)O.[Gd+3] [Gadopenetate, Gd-DTPA]

r1 [1]: 3.6 mM⁻¹ s⁻¹
Molecule: O=C([O-])CN1CCN(CC(=O)[O-])CCN(CC(=O)[O-])CCN(CC(=O)[O-])CC1.[Gd+3] [Gadoterate, Gd-DOTA]

r1 [1]: 4.7 mM⁻¹ s⁻¹
Molecule: Gd-DTPA-BMEA [Gadoversetamide]

Molecule: Mn-DPDP [Mangafodipir]
r1 [1]: 1.9 mM⁻¹ s⁻¹
Viscosity (concentration 0.01M): 0.7 cP
Osmolality ([2]; concentration 0.01M): 0.29 osmol/kg

r1 [1]: 3.6 mM⁻¹ s⁻¹
Molecule: O=C([O-])CN1CCN(CC(=O)[O-])CCN([C@H](CO)[C@H](O)CO)CCN(CC(=O)[O-])CC1.[Gd+3] (racemic) [Gadobutrol, Gd-DO3A-butrol]

r1 [1]: 3.7 mM⁻¹ s⁻¹
Molecule: Gd-HPDO3A [Gadoteridol]

r1 [1]: 4.4 mM⁻¹ s⁻¹
Molecule: CNC[C@H](O)[C@@H](O)[C@H](O)[C@H](O)CO.CNC[C@H](O)[C@@H](O)[C@H](O)[C@H](O)CO.O=C([O-])CN(CCN(CC(=O)[O-])CC(=O)O)CCN(CC(=O)O)C(COCc1ccccc1)C(=O)[O-].[Gd+3] (stereo not drawn) [Gadobenate, Gd-BOPTA]

B1: HDL-apoAI: apoAI moiety of HDL in the circulation of a mouse (protein, UniProt Q00623 25-264, looked up)
Apolipoprotein A-I: DEPQSQWDKVKDFANVYVDAVKDSGRDYVSQFESSSLGQQLNLNLLENWDTLGSTVSQLQERLGPLTRDFWDNLEKETDWVRQEMNKDLEEVKQKVQPYLDEFQKKWKEDVELYRQKVAPLGAELQESARQKLQELQGRLSPVAEEFRDRMRTHVDSLRTQLAPHSEQMRESLAQRLAELKSNPTLNEYHTRAKTHLKTLGEKARPALEDLRHSLMPMLETLKTQVQSVIDKASETLTAQ
t1/2 in the circulation [3]: roughly 10 h
